Results as given in publication PMC11242993, “Evaluation of the Therapeutic Potential of Sulfonyl Urea Derivatives as Soluble Epoxide Hydrolase (sEH) Inhibitors” (Molecules, 2024).

Columns and labels:
[1] = target: T1, mouse recombinant sEH (Mus musculus, UniProt P34914); test: Fluorescence-based sEH activity assay (PHOME substrate), mouse enzyme; assay type: biochemical; conditions: dose-dependent assay; read-out: Mouse sEH Inhibition IC50
T1 sequence (P34914 1-554): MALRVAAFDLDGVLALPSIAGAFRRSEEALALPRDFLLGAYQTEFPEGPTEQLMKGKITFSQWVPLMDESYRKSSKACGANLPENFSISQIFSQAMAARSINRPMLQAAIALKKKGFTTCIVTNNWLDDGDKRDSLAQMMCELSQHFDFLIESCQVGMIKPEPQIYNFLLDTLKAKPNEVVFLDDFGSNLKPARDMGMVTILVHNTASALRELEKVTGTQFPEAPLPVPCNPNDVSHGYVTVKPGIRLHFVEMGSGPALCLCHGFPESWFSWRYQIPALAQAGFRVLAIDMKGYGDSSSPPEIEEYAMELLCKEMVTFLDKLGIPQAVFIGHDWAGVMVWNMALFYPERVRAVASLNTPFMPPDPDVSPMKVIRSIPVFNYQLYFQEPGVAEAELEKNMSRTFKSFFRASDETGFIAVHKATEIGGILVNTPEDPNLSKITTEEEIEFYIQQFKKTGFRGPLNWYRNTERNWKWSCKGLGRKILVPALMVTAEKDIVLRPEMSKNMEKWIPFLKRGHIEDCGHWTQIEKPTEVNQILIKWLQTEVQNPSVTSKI
Method: A fluorescence-based sEH activity assay provided a convenient method for screening human epoxide hydrolase inhibitors. The assay utilized (3-Phenyl-oxiranyl)-acetic acid cyano-(6-methoxy-naphthalen-2-yl)-methyl ester (PHOME) as a substrate. […] The inhibitory function of the compounds on sEH activity was tested as detailed in the product manual from Cayman Chemical. Briefly, 3 mL sEH assay buffer (10×) was diluted with 27 mL HPLC-grade water. This final assay buffer, 25 mM bis-tris (pH 7.0), was used in the assay and for the dilution of the soluble epoxide hydrolase (sEH) enzyme. Amounts of 12 μL each of human and mouse recombinant sEH were thawed on ice. Prior to assaying, 588 μL cold assay buffer was added directly to the enzyme vial. An amount of 190 μL assay buffer and 5 μL solvent (40% DMSO in assay buffer) were added to the background wells. In the 100% initial activity wells, 185 μL assay buffer, 5 μL sEH, and 5 μL solvent were added. In inhibitor wells, 185 μL assay buffer, 5 μL solution of the synthesized compounds, and 5 μL of recombinant enzyme solution were added. To start the reaction, 5 μL of PHOME was added to each well at a final concentration of 0.25 mM. The microwell plate was shaken carefully for 10 s and covered with a plate cover.
Average fluorescence (AF) of the background wells and 100% initial activity in the wells and of each of the inhibitors were determined. The background AF was subtracted from the 100% initial activity and inhibitor AFs. The % sEH activity is calculated as (inhbitited AF/% 100 initial activity) × 100.
Multiple concentrations of the inhibitors were tested followed by plotting of the percent activity as a function of inhibitor concentration to determine the IC50 values.

[2] = tested on: C57BL/6J male mice; test: Tail-flick reflex model; assay type: in vivo; conditions: single intraperitoneal injection at 10 mg/kg
Method: A tail-flick reflex test was performed as previously described. The parameters of the tail-flick instrument (7360, Ugo Basile Instruments, Varese, Italy) were set up to keep the baseline at 2.5–4.0 s. Mice were fixed and the part about 1.5–2 cm away from the tail of the mouse was aligned with the infrared emission hole of the instrument. […] Latencies of mice of less than 2 s or more than 5 s were excluded. […] The cut-off time in the tail-flick reflex test was set at 8 s to avoid sensitization and damage to the skin and to achieve the maximum possible effect (MPE%) = (measured value − basic value) × 100/(cut-off − basic value). C57BL/6J male mice obtained from The Jackson Laboratory (Bar Harbor, ME, USA) weighing 28 g were used for the tail-flick test. Animal procedures were conducted following the rules and regulations of the Institutional Animal Care and Use Committee of the National Institute on Alcohol Abuse and Alcoholism (NIAAA) under the protocols of LPS-GK1.

[3] = Caco-2 permeability; assay type: in vitro ADME; conditions: human, Caco-2, pH 7.4
Method: Caco-2 cells were cultured in 75 cm^2 flasks to 80–90% confluence according to the ATCC and Millipore recommendations in a humidified atmosphere at 37 °C and 5% CO2. Cells were detached with a trypsin/EDTA solution, resuspended in the complete medium containing DMEM high glucose ([…]) with L-glutamine (4 mM) supplemented with 10% heat-inactivated Fetal Bovine Serum, 1% non-essential amino acids, and 730 nM puromycin, and seeded at a density of 5 × 10^5 cells in a 75 cm^2 flask. After 5 days, cells were trypsinized and resuspended in the complete medium to a final concentration of 600 × 10^3 cells/mL. Of the cell suspension, 400 µL was added to each well of an HTS 24-Multiwell Insert System and 25 mL of prewarmed complete medium was added to the feeder tray. Caco-2 cells were incubated in the Multiwell Insert System for 6–10 days before the transport experiments. The medium in the filter plate and feeder tray was refreshed every other day. Prior to the transport experiment, the integrity of the monolayer was verified by measuring the transepithelial electrical resistance (TEER) for every well using a Millicell-ERS system ohm meter. The final TEER values were within the range of 150–600 Ω × cm^2, as required for the assay conditions. The 24-well insert plate was removed from its feeder plate and placed in a new sterile 24-well transport analysis plate. The inserts were washed with PBS after medium aspiration. Ketoprofen, atenolol, digoxin, and quinidine were used as reference compounds.
To determine transport rates in the basolateral (B)-to-apical (A) direction, 1000 μL of the test compound solutions was added into the wells of the transport analysis plate, and the wells in the filter plate were filled with 300 μL of buffer (apical compartment).
The effect of the inhibitor on the Pgp-mediated transport of the tested compounds was assessed by determining the bidirectional transport in the presence or absence of verapamil. The Caco-2 cells were preincubated for 30 min at 37 °C with 100 μM of verapamil in both apical and basolateral compartments. After removal of the preincubation medium, the test compounds with verapamil (100 μM) in transport buffer were added in donor wells, while the receiver wells were filled with the appropriate volume of transport buffer with 100 μM of verapamil. The final amounts of test and reference compounds were 10 μM each. The plates were incubated for 90 min at 37 °C under continuous shaking at 100 rpm. Aliquots of 75 μL were taken from the donor and receiver compartments for LC–MS/MS analysis. All samples were mixed with 2 volumes of acetonitrile followed by protein sedimentation by centrifuging at 10,000 rpm for 10 min. Supernatants were analyzed using the HPLC system coupled with a tandem mass spectrometer.

SMILES: O=C(NC12CC3CC(CC(C3)C1)C2)NS(=O)(=O)c1ccc(OC(F)(F)F)cc1 [Compound 4f]
- IC50 [1]: 0.29 µM
- analgesic activity in tail-flick model [2]: significant efficacy
- Papp A→B at 90 min, 10 µM ([3]; A to B, read-out: Caco-2 Permeability Apical to Basal (Papp)): 14.9 ×10⁻⁶ cm/s
- Papp B→A at 90 min, 10 µM ([3]; B to A, read-out: Caco-2 Permeability Basal to Apical (Papp)): 12.6 ×10⁻⁶ cm/s

SMILES: O=C(NC12CC3CC(CC(C3)C1)C2)NS(=O)(=O)c1ccc2ccccc2c1 [Compound 4l]
- IC50 [1]: 0.19 µM
